Measured values as given in EP4775582A1, “MACROCYCLIC COMPOUND AND ANTIBODY-DRUG CONJUGATE THEREOF” (Genfleet Therapeutics (Shanghai) Inc., priority 2023, dated 2025).
Values after ≈ are worked out from the molar mass of the structure shown. Where two headings read alike, the source gives them in different places.

How the values were obtained:
[1] = Solubility experiment (HPLC, external standard); assay type: physicochemical; conditions: pH 7.4, pH 7.4 medium, 37 °C, 24 h
Description: This experiment was intended to determine the solubility of the compounds in media at different pH values. The materials used in the experiment included: a pH 1.2 medium, a pH 4.5 medium, a pH 7.4 medium, and a diluent (acetonitrile/water = 50/50). 1. The preparation methods for media are as follows:
One centrifuge tube (containing about 2 mg of the test sample) was taken, 1 mL of DMSO was added to completely dissolve the test sample, and the mixture was marked as stock-1. 0.2 mL of stock-1 was transferred into a 10 mL volumetric flask, and then the 50:50 (acetonitrile/water) solution was added to bring the volume to the mark, so as to give a control solution.
Additionally, centrifuge tubes each containing about 1 mg of the test sample were taken, 1 mL of the corresponding medium solution was then added, and the tubes were shaken on a 37 °C water bath shaker for 24 h. After centrifugation for 3 times (centrifugation time: 10 min, rotation speed: 12000 rpm), 0.2 mL of the supernatants were taken, 0.8 mL of the diluent (acetonitrile/water = 50/50) was added to each tube, and the mixtures were vortexed and mixed well to give solubility samples.
The solubility samples described above and the control solution were sequentially analyzed by high performance liquid chromatography. The chromatographic conditions are as follows:
The actual concentration of the compound in each solubility sample was calculated according to an external standard method. Concentration (μg/mL) = (ASample × CControl × DSample)/(AControl)∗1000; [formula] Asample: the peak area of the target peak in the sample solution; Ccontrol: the concentration (mg/mL) of the control solution; Dsample: the dilution factor of the sample solution; Acontrol: the peak area of the target peak in the control solution.

KRAS WT-cRAF = KRAS WT-cRAF (Homo sapiens, UniProt P01116+P62937); experiment: Assay for binding of KRAS to cRAF (HTRF, with Cyclophilin A), KRAS WT
Chain of KRAS WT-cRAF (P01116 1-188 isoform P01116-2): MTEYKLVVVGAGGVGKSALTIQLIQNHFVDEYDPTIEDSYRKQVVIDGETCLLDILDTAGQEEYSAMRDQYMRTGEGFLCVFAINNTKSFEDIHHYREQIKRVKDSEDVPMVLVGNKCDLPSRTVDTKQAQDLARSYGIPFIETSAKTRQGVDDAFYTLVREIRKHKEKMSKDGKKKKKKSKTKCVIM
Chain of KRAS WT-cRAF (P62937 whole entry): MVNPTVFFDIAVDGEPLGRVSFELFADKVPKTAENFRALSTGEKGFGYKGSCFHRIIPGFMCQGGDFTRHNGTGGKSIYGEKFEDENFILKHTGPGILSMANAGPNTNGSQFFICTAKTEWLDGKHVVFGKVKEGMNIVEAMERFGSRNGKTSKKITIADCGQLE
Description: (§3) The plate was centrifuged at 1000 rpm for 1 min and then incubated in the thermostatic incubator at 20 °C for 30 min. […] The plate was centrifuged at 1000 rpm for 1 min and then incubated in the thermostatic incubator at 20 °C for 60 min. […] The working solution was added to the aforementioned assay plate at 5 µL/well. The plate was centrifuged at 1000 rpm for 1 min and then incubated in the thermostatic incubator at 20 °C for 60 min.

KRAS G12V-cRAF = KRAS G12V-cRAF (Homo sapiens, UniProt P01116+P62937, G12V); experiment: Assay for binding of KRAS to cRAF (HTRF, with Cyclophilin A), KRAS G12V
Chain of KRAS G12V-cRAF (P01116 1-188 isoform P01116-2 G12V): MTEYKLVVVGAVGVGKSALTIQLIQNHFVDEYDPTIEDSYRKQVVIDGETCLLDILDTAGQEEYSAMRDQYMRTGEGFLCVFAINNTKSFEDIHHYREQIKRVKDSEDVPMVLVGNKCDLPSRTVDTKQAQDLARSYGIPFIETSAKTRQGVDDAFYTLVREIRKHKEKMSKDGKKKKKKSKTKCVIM
Chain of KRAS G12V-cRAF (P62937 whole entry): as the sequence (P62937 whole entry) above
Description: as §3

AsPC-1 p-ERK = experiment: Cell p-ERK assay (HTRF), AsPC-1 cells; assay type: cell-based, human; conditions: Homo sapiens
In short: (§1)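 Phospho-ERK (T202/Y204) was measured by HTRF in lysates after 3 h compound treatment at 37 °C. Cells had been plated the previous day at 20000 per well for NCI-H441 and 10000 per well for AsPC-1. Four-parameter dose-response fitting of % inhibition gave IC50 values.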

H441 p-ERK = experiment: Cell p-ERK assay (HTRF), NCI-H441 cells; assay type: cell-based, human; conditions: Homo sapiens; NCI-H441 cells (KRAS G12V), 3 h incubation
In short: as §1

AsPC-1 cells = experiment: 3D cell proliferation assay (CellTiter Glo-3D), AsPC-1; assay type: cell-based, human; conditions: Homo sapiens, ASPC1, 120 h; AsPC-1 cells (KRAS G12D), 3D, 2% FBS, 5 days; read-out: AsPC-1 AP IC50
In short: (§2)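 IC50 values come from four-parameter fits of inhibition rate against log compound concentration, using CellTiter-Glo luminescence read after 5 days' exposure. AsPC-1 and NCI-H441 were plated at 800 cells per well in low-serum (2% FBS) medium. Compound was dosed the day after seeding, with incubation at 37 °C, 5% CO2.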

NCI-H441 cells = experiment: 3D cell proliferation assay (CellTiter Glo-3D), NCI-H441; assay type: cell-based, human; conditions: Homo sapiens, 120 h, NCI-H441 cells (KRAS G12V), 2% FBS, 5 days, read-out: H441 AP IC50
In short: as §2

[2] = KRAS WT-cRAF binding assay(nM), GPPNP-KRAS WT, IC50 values
[3] = KRAS G12V-cRAF binding assay(nM), GPPNP-KRAS G12V, IC50 values
[4] = read-out: KRAS WT-cRAF binding assay, GPPNP-KRAS WT, IC50 values
[5] = read-out: KRAS G12V-cRAF binding assay, GPPNP-KRAS G12V, IC50 values
[6] = ASPC1, AsPC-1 cells (KRAS G12D), 3 h incubation, read-out: AsPC-1 p-ERK IC50

SMILES | solubility at 24 h ([1]; pH 7.4 medium) [µg/mL] | IC50 (KRAS WT-cRAF; [2]) [nM] | IC50 (KRAS G12V-cRAF; [3]) [nM] | solubility at 24 h ([1]; ph 7.4 medium) [µg/mL] | IC50 (AsPC-1 p-ERK; ASPC1, 3 h, read-out: AsPC-1 p-ERK IC50(nM)) [nM] | IC50 (H441 p-ERK) [nM] | IC50 (KRAS WT-cRAF; [4]) [nM] | IC50 (KRAS G12V-cRAF; [5]) [nM] | IC50 (AsPC-1 cells) [nM] | IC50 (NCI-H441 cells) [nM] | IC50 (AsPC-1 p-ERK; [6]) [nM]
CCn1c(-c2cc(C#CCN3CCS(=O)(=O)CC3)cnc2C(C)OC)c2c3cc(ccc31)-c1csc(n1)CC(NC(=O)C1C3CNCC31)C(=O)N1CCCC(N1)C(=O)OCC(C)(C)C2 (atropisomer, axis not shown; (Ra)) [Compound Z18, (1R,5S,6r)-N-((6^3S,4S,Z)-(Ra)-1^2-(5-(3-(1,1-dioxidothiomorpholino)prop-1-yn-1-yl)-2-((S)-1-methoxyethyl)pyridin-3-yl)-1^1-ethyl-10,10-dimethyl-5,7-dioxo-6^1,6^2,6^3,6^4,6^5,6^6-hexahydro-1^1H-8-oxa-2(4,2)-thiazola-1(5,3)-indola-6(1,3)-pyridazinacycloundecaphane-4-yl)-3-azabicyclo[3.1.0]hexane-6-carboxamide] | 22.4 (≈ 24.6 µM) | 31 | 16.5 | – | – | – | – | – | – | – | –
COCCn1c(-c2cc(C#CCN3CCN(C(=O)CO)CC3)c[n+]([O-])c2C(C)OC)c2c3cc(ccc31)-c1csc(n1)CC(NC(=O)C1C3COCC31)C(=O)N1CCCC(N1)C(=O)OCC(C)(C)C2 (atropisomer, axis not shown; (Ra)) [Compound Z38-1, (Ra)-3-((6^3S,4S,Z)-4-((1R,5S,6r)-3-oxabicyclo[3.1.0]hexane-6-carboxamido)-1^1-(2-methoxyethyl)-10,10-dimethyl-5,7-dioxo-6^1,6^2,6^3,6^4,6^5,6^6-hexahydro-1^1H-8-oxa-2(4,2)-thiazola-1(5,3)-indola-6(1,3)-pyridazinacycloundecaphane-1^2-yl)-5-(3-(4-(2-hydroxyacetyl)piperazin-1-yl)prop-1-yn-1-yl)-2-((S)-1-methoxyethyl)pyridine-1-oxide] | 97 (≈ 100 µM) | 69.6 | 37.7 | – | – | – | – | – | – | – | –
CCn1c(-c2cc(C#CCN3CCN(C(=O)CN)CC3)cnc2[C@H](C)OC)c2c3cc(ccc31)-c1coc(n1)C[C@H](NC(=O)[C@H]1[C@@H]3COC[C@@H]31)C(=O)N1CCC[C@H](N1)C(=O)OCC(C)(C)C2 (atropisomer, axis not shown; (Ra)) [Compound Z167, (1R,5S,6r)-N-((6^3S,4S,Z)-1^2-(5-(3-(4-glycylpiperazin-1-yl)prop-1-yn-1-yl)-(Ra)-2-((S)-1-methoxyethyl)pyridin-3-yl)-1^1-ethyl-10,10-dimethyl-5,7-dioxo-6^1,6^2,6^3,6^4,6^5,6^6-hexahydro-1^1H-8-oxa-2(4,2)-oxazola-1(5,3)-indola-6(1,3)-pyridazinacycloundecaphane-4-yl)-3-oxabicyclo[3.1.0]hexane-6-carboxamide] | – | – | – | 363 (≈ 401 µM) | 1.64 | 1.27 | 40.9 | 13.9 | – | – | –
COCCn1c(-c2cc(C#CCN3CCN(C(=O)CO)CC3)c[n+]([O-])c2[C@H](C)OC)c2c3cc(ccc31)-c1csc(n1)C[C@H](NC(=O)[C@H]1[C@H](C)[C@@H]1C)C(=O)N1CCC[C@H](N1)C(=O)OCC(C)(C)C2 (atropisomer, axis not shown; (Ra)) [Compound Z54, (Ra)-3-((6^3S,4S,Z)-4-((1r,2R,3S)-2,3-dimethylcyclopropane-1-carboxamido)-1^1-(2-methoxyethyl)-10,10-dimethyl-5,7-dioxo-6^1,6^2,6^3,6^4,6^5,6^6-hexahydro-11H-8-oxa-2(4,2)-thiazola-1(5,3)-indola-6(1,3)-pyridazinacyclodecaphane-1^2-yl)-5-(3-(4-(2-hydroxyacetyl)piperazin-1-yl)prop-1-yn-1-yl)-2-((S)-1-methoxyethyl)pyridine 1-oxide] | – | – | – | 36.2 (≈ 38 µM) | – | – | 74.8 | 12.1 | 14 | 4.7 | –
CCn1c(-c2cc(C#CCN3CCS(=O)(=O)CC3)cnc2C(C)NC)c2c3cc(ccc31)-c1csc(n1)CC(NC(=O)C1C(C)C1C)C(=O)N1CCCC(N1)C(=O)OCC(C)(C)C2 (atropisomer, axis not shown; (Ra)) [Compound Z67, (1r,2R,3S)-N-((6^3S,4S,Z)-(Ra)-1^2-(5-(3-(1,1-dioxidothiomorpholino)prop-1-yn-1-yl)-2-((R)-1-(methylamino)ethyl)pyridin-3-yl)-1-ethyl-10,10-dimethyl-5,7-dioxo-6^1,6^2,6^3,6^4,6^5,6^6-hexahydro-1^1H-8-oxa-2(4,2)-thiazola-1(5,3)-indola-6(1,3)-pyridazinacycloundecaphane-4-yl)-2,3-dimethylcyclopropane-1-carboxamide] | 101 (≈ 113 µM) | 62 | 8.7 | – | – | 8.12 | – | – | – | – | 10.6
CCn1c(-c2cc(OCCN3CCC(C#N)(CN)CC3)c[n+]([O-])c2[C@H](C)OC)c2c3cc(ccc31)-c1csc(n1)C[C@H](NC(=O)[C@H]1[C@H](C)[C@@H]1C)C(=O)N1CCC[C@H](N1)C(=O)OCC(C)(C)C2 (atropisomer, axis not shown; (Ra)) [Compound Z73, 5-(2-(4-(aminomethyl)-4-cyanopiperidin-1-yl)ethoxy)-(Ra)-3-((6^3S,4S,Z)-4-((1r,2R,3S)-2,3-dimethylcyclopropane-1-carboxamido)-1^1-ethyl-10,10-dimethyl-5,7-dioxo-6^1,6^2,6^3,6^4,6^5,6^6-hexahydro-1^1H-8-oxa-2(4,2)-thiazola-1(5,3)-indola-6(1,3)-pyridazinacycloundecaphane-1^2-yl)-2-((S)-1-methoxyethyl)pyridine 1-oxide] | – | – | – | 96.6 (≈ 104 µM) | – | 3.84 | – | – | 2.5 | 2.48 | 3.19
CCn1c(-c2cc(C#CCN3CCC(C(=O)NCCO)CC3)cnc2[C@H](C)OC)c2c3cc(ccc31)-c1csc(n1)C[C@H](NC(=O)[C@H]1[C@@H]3COC[C@@H]31)C(=O)N1CCC[C@H](N1)C(=O)OCC(C)(C)C2 (atropisomer, axis not shown; (Ra)) [Compound Z21, 1-(3-(5-((6^3S,4S,Z)-4-((1R,5S,6r)-3-oxabicyclo[3.1.0]hexane-6-carboxamido)-1^1-ethyl-10,10-dimethyl-5,7-dioxo-6^1,6^2,6^3,6^4,6^5,6^6-hexahydro-1^1H-8-oxa-2(4,2)-thiazola-1(5,3)-indola-6(1,3)-pyridazinacycloundecaphane-1^2-yl)-6-(Ra)-((S)-1-methoxyethyl)pyridin-3-yl)prop-2-yn-1-yl)-N-(2-hydroxyethyl)piperidine-4-carboxamide] | – | – | – | 9.71 (≈ 10.2 µM) | – | 0.51 | – | – | 1.11 | 0.41 | 1.68
CCn1c(-c2cc(C#CCN3CCC(C#N)(CO)CC3)c[n+]([O-])c2[C@H](C)OC)c2c3cc(ccc31)-c1csc(n1)C[C@H](NC(=O)[C@H]1[C@H](C)[C@@H]1C)C(=O)N1CCC[C@H](N1)C(=O)OCC(C)(C)C2 (atropisomer, axis not shown; (Ra)) [Compound Z45-1, 5-(3-(4-cyano-4-(hydroxymethyl)piperidin-1-yl)prop-1-yn-1-yl)-(Ra)-3-((6^3S,4S,Z)-4-((1r,2R,3S)-2,3-dimethylcyclopropane-1-carboxamido)-1^1-ethyl-10,10-dimethyl-5,7-dioxo-6^1,6^2,6^3,6^4,6^5,6^6-hexahydro-1^1H-8-oxa-2(4,2)-thiazola-1(5,3)-indola-6(1,3)-pyridazinacycloundecaphane-1^2-yl)-2-((S)-1-methoxyethyl)pyridine 1-oxide] | – | – | – | 5.01 (≈ 5.45 µM) | – | 0.6 | – | – | 0.12 | 0.53 | 0.28
